Data: patent US4751222A, “2,3,4,5-tetrahydro-1H-3-benzazepines and CNS affecting use thereof” (Novo Industri A/S, priority 1985, dated 1988)
Counter-ions that a name gives are not always drawn. Like-named read-outs stand apart in the source and are kept apart here.

What was measured:
dopamine D1 = settings: cited from earlier work
dopamine D1 receptor = dopamine D1 receptor (Rattus norvegicus, UniProt P18901); assay: biochemical; settings: read-out: Ki, dopamine stimulated adenylate cyclase
Excerpt: Ki is the affinity of the tested compound for the dopamine D1 receptor as estimated from Schild analysis.

rats = assay: acute toxicity in rats, intraperitoneal; format: in vivo; settings: 100 mg/kg intraperitoneal
Procedure: (§1) 8-chloro-7-hydroxy-3-methyl-5-(5-indanyl)-2,3,4,5-tetrahydro-1H-3-benzazepine and several other compounds of formula I were atoxic when given to rats and mice in a dosis of 100 mg/kg intraperitonealt.

mice = assay: acute toxicity in mice, intraperitoneal; format: in vivo; settings: 100 mg/kg intraperitoneal
Procedure: as §1

[1] = Life Sci. 34 (1984), 1529; cited from earlier work
[2] = Life Sci. 31 (1982), 637 et seq.

Sequence of dopamine D1 receptor (P18901 whole entry): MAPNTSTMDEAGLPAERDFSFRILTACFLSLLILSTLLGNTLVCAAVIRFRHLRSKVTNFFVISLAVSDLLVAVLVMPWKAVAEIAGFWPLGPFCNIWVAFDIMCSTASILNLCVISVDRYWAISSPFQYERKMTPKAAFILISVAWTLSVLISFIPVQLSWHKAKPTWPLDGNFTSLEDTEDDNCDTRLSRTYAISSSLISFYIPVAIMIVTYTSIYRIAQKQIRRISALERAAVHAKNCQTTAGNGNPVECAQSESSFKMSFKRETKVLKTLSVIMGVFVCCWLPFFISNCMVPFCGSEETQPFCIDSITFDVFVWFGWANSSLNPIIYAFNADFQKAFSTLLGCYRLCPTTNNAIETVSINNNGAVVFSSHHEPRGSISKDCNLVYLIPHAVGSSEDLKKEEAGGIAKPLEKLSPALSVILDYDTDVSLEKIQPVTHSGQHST

2,3,4,5-tetrahydro-9-chloro-7,8-dihydroxy-1-(4-hydroxyphenyl)-1H-3-benzazepine [SKF 82526]
dopamine D1 activity (dopamine D1; [2]): selective but partial dopamine D1 agonists

CN1CCc2cc(Cl)c(O)cc2C(c2ccc(Cl)c3c2OCCC3)C1 (racemic) [Example No. 5f, 8-chloro-7-hydroxy-3-methyl-5-(5-chlorochroman-8-yl)-2,3,4,5-tetrahydro-1H-3-benzazepine]
Ki (dopamine D1 receptor): 10 nM

CN1CCc2cc(Cl)c(O)cc2C(c2cccc3ccoc23)C1 (racemic) [Example No. 5h, 8-chloro-7-hydroxy-3-methyl-5-(7-benzofuranyl)-2,3,4,5-tetrahydro-1H-3-benzazepine]
Ki (dopamine D1 receptor): 6 nM

CN1CCc2cc(Cl)c(O)cc2C(c2ccc3c(c2)CCCC3)C1 (racemic) [Example No. 5j, 8-chloro-7-hydroxy-5-(1,2,3,4-tetrahydronaphth-6-yl)-3-methyl-2,3,4,5-tetrahydro-1H-3-benzazepine hydrochloride]
Ki (dopamine D1 receptor): 21 nM

Br.CN1CCc2cc(Cl)c(O)cc2C(c2ccc3c(c2)CCC3)C1 (stereo not shown) [Example No. 5a, 8-chloro-7-hydroxy-3-methyl-5-(5-indanyl)-2,3,4,5-tetrahydro-1H-3-benzazepine hydrobromide]
toxicity in rats (rats): atoxic
toxicity in mice (mice): atoxic

CN1CCc2cc(Cl)c(O)cc2[C@@H](c2ccccc2)C1 [SCH 23390, R-8-chloro-7-hydroxy-2,3,4,5-tetrahydro-3-methyl-5-phenyl-1H-3-benzazepine]
duration of action [1]: short duration of action
peroral adsorption [1]: poor peroral adsorption
dopamine D1 activity (dopamine D1; Eur.J.Pharmacol. 91 (1983), 153 et seq.): selective D1 dopamine antagonist

Oc1cc2c(cc1O)C(c1ccccc1)CNCC2 (stereo not shown) [SKF 38393, 2,3,4,5-tetrahydro-7,8-dihydroxy-1-phenyl-1H-3-benzazepine]
dopamine D1 activity (dopamine D1; [2]): selective but partial dopamine D1 agonists
